Measurements reported in ChEMBL document CHEMBL4507325 (2021).

Biological target: Branched-chain-amino-acid aminotransferase, mitochondrial (Homo sapiens, UniProt O15382)
Sequence (O15382 whole entry): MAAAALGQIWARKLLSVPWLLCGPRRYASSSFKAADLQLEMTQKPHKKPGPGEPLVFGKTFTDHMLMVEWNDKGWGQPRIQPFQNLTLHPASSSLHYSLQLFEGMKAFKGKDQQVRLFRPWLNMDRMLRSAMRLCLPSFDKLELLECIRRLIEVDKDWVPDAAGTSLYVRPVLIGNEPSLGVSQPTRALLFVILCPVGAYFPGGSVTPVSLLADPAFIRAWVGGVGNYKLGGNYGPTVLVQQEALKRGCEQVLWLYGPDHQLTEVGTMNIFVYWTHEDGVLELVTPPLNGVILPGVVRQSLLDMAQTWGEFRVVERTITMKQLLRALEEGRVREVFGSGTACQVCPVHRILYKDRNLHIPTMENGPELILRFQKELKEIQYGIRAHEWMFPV

Cc1ccccc1Oc1cc(-n2c(=O)cc(C(F)(F)F)[nH]c2=O)c2ccccc2c1 [BAY-771]
IC50: 10.8 µM (not active)
